Assay [1] has as its system engineered strain of Escherichia coli harboring CTX-M15. Briefly: microbe, parasite or virus in culture. Type of assay: cell-based. Conditions: for MIC: Escherichia coli, read-out: Microbiological Activity (MIC in mg/L), E. coli DH5α/pLBII-CTX-M15, engineered strain producing CTX-M15. How it is done:
(§1) Briefly, cryo-preserved bacterial cultures of challenge strains are streaked for isolation on appropriate agar medium, in this case Mueller Hinton II agar. Following incubation to allow growth of the colonies, plates are sealed with parafilm and stored refrigerated for up to two weeks. For preparation of assay inoculum and to ensure low variability, at least 5 colonies are picked from the agar plates with an inoculating loop and aseptically transferred to a culture tube containing 3 mL of Mueller-Hinton Broth (supplemented with divalent cations to required levels based on Manufacturers' certification). The broth culture is grown for 3-5 hours at 37° C. with shaking at 200 rpm. Meanwhile, 2-fold serial dilutions of test compounds are conducted in a 96 well plate with a final volume of 75 μL per well at 2-fold the final desired concentration. After the dilution plates are set up the growing cultures are then diluted in a cuvette containing MH II broth and the optical density is measured at 600 nm. The Inoculum is diluted such that 75 μL of this culture in Mueller-Hinton Broth results in a starting bacterial concentration of 5×10^5 CFU/mL when added to the dilution plates. The plates are incubated for 16-20 hours at 37° C. The MIC values are read visually as the lowest concentration well with no bacterial growth.
To determine if test compounds were affected by CTX-M15, the most abundant extended spectrum […] in clinical settings worldwide, the inhibition of the growth of an engineered strain of Escherichia coli harboring CTX-M15 was tested. This strain was constructed by cloning the gene encoding CTX-M15 into the NdeI and BamHI restriction endonuclease sites of plasmid pLBII, placing the gene(s) under the control of the Lac promoter. The constructed expression plasmid for CTX-M15 was used to transform competent E. coli DH5α cells to make the engineered strain, including an empty pLBII vector control strain. The classic cell based broth microdilution MIC assay was employed as described above with the addition of control antibiotics, known to be degraded by β-lactamases (Ceftazidime, piperacillin and piperacillin+tazobactam).

The subject of another assay is E. coli ATCC 25922. Briefly: Broth microdilution MIC, E. coli ATCC 25922. Type of assay: cell-based. As to conditions: Escherichia coli, ATCC25922; E. coli ATCC 25922, broth microdilution; read-out: MIC E. coli 25922. How it is done:
(§2) To determine the ability of test compounds to potentiate the inhibition of the growth of bacterial strains, classic cell based broth microdilution minimum inhibitory concentration (MIC) assays were employed. MIC assays are performed according to CLSI methods except where otherwise noted (CLSI, 2011 and CLSI, 2009). The reference type strain E. coli ATCC 25922, the wild-type parent strain E. coli AG100, the hyper-permeable E. coli 901C and E. coli D22 and the E. coli AG100A strain lacking the acrAB efflux pump encoding genes were used to determine the ability of the PBP inhibitors to penetrate the outer membrane of gram-negative bacteria and inhibit bacterial growth. […] The P. aeruginosa PAO1, P. aeruginosa ATCC 27853 and A. baumannii ATCC 19606, along with the hyper-permeable P. aeruginosa ATCC 35151 and an engineered efflux pump-compromised strain of P. aeruginosa (ΔmexAB-oprM) were used to determine the ability of PBP inhibitors to penetrate the outer membrane of P. aeruginosa and A. baumannii and assess antibacterial activity against these important gram-negative organisms.
as §1

The target of a further assay is E. coli PBP3 (Escherichia coli (strain K12), UniProt P0AD68). Briefly: E. coli PBP3 Bocillin-FL fluorescence polarization competition binding assay. The method in brief:
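FP competition: 1.5 μM PBP, 0.1 μM Bocillin-FL, cpd 0–1000 μM; 50 mM Hepes pH 8.0/300 mM NaCl/5% glycerol. Read 490/520 nm immediately after Bocillin-FL addition, 60 min. EC50 = cpd conc. lowering probe binding.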

Another assay relates to E. coli AG100. Briefly: Broth microdilution MIC, E. coli AG100 (wild-type parent). Type of assay: cell-based. As to conditions: Escherichia coli; wild-type parent E. coli AG100, broth microdilution; read-out: MIC E. coli AG100. How it is done: To determine the ability of test compounds to potentiate the inhibition of the growth of bacterial strains, classic cell based broth microdilution minimum inhibitory concentration (MIC) assays were employed.
as §1

The subject of another assay is K. pneumoniae 848844. Put plainly: microbe, parasite or virus in culture. Type of assay: cell-based, Klebsiella pneumoniae. Conditions: Klebsiella pneumoniae; K. pneumoniae 848844 producing SHV-11 and KPC-2; read-out: MIC K. pneumoniae 848844. How it is done: as §2, §1
The test system of another assay is E. coli 901C. Put plainly: microbe, parasite or virus in culture. Type of assay: cell-based. As to conditions: Escherichia coli; hyper-permeable E. coli 901C, broth microdilution; read-out: MIC E. coli 901C. How it is done: as §2, §1
The test system of another assay is K. pneumoniae UMM. Put plainly: microbe, parasite or virus in culture. Type of assay: cell-based. Conditions: Klebsiella pneumoniae; K. pneumoniae UMM producing SHV-5 and KPC-2; read-out: MIC K. pneumoniae UMM. How it is done:
as §2, §1

Another assay relates to E. coli D22. Put plainly: microbe, parasite or virus in culture. In kind it is cell-based. Conditions: Escherichia coli; hyper-permeable E. coli D22, broth microdilution; read-out: MIC E. coli D22. On the procedure:
as §2, §1

The next assay has as its system K. pneumoniae SI-117. Briefly: microbe, parasite or virus in culture. Type of assay: cell-based. Conditions: Klebsiella pneumoniae, SI117, read-out: MIC K. pneumoniae SI-117. On the procedure: as §2, §1
For another assay, the system named is E. coli AG100A. Briefly: microbe, parasite or virus in culture. As to conditions: Escherichia coli, read-out: MIC E. coli AG100A. Type of assay: cell-based. How it is done: as §2, §1
Where [2] appears, read: fluorescence polarization competition binding with Bocillin-FL, read-out: E. coli K12 PBP3 Potency.

Each structure is given as a SMILES string. pEC50: −log10 of the molar value. Values after ≈ are worked out from the molar mass of the structure shown. Like-named read-outs stand apart in the source and are kept apart here. Some results are limits rather than exact numbers.

Chain of E. coli PBP3 (P0AD68 whole entry): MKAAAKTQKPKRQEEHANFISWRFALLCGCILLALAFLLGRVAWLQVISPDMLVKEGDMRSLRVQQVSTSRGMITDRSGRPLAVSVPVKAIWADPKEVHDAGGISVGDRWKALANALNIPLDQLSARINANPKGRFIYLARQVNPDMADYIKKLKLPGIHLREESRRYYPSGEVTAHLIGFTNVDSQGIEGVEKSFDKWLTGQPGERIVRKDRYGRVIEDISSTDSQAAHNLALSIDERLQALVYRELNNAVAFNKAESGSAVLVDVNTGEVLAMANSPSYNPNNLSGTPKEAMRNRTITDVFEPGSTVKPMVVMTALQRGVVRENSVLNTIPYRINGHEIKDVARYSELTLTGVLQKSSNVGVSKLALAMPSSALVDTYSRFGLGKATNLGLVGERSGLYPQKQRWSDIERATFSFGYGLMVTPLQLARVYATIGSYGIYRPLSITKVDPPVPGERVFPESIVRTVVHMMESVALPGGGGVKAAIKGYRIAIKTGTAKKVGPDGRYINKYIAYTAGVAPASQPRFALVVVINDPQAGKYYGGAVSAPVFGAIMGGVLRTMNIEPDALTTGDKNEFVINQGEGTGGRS

Turning to `CCN1CCN(C(=O)NC(C(=O)N[C@H]2Cc3cccc(C(=O)O)c3OB2O)C(CO)CNS(N)(=O)=O)C(=O)C1=O` (stereo partly drawn) [Example 79, (3R)-3-(2-(4-ethyl-2,3-dioxopiperazine-1-carboxamido)-4-hydroxy-3-((sulfamoylamino)methyl)butanamido)-2-hydroxy-3,4-dihydro-2H-benzo[e][1,2]oxaborinine-8-carboxylic acid], the MIC in assay [1] fell in the range of 32 to 64 mg/L (≈ 54.8 to 110 µM).
On to `CC(C)(O/N=C(\C(=O)N[C@@H]1C(=O)N2C(C(=O)[O-])=C(C[n+]3ccccc3)CS[C@H]12)c1csc(N)n1)C(=O)O` [ceftazidime, reference compound], for which, in assay [1] (engineered E. coli DH5α with CTX-M15 vs empty vector control), the “MIC in CTX-M15 producer compared with parent strain with empty pLBII plasmid” value is given as “weaker MICs in the CTX-M15 producer”. For the same compound, in assay [1] (engineered strain producing CTX-M15), the “Microbiological Activity (MIC in mg/L), E. coli DH5α/pLBII-CTX-M15” value is on record as “D (D represents an MIC from 8 to 16 μg/mL)”.
`O=C(O)c1cccc2c1OB(O)[C@@H](NC(=O)C(NC(=O)c1c[nH]c3cccnc3c1=O)c1ccc(O)c(O)c1Cl)C2` (stereo partly drawn) [Example 59, (3R)-3-(2-(2-chloro-3,4-dihydroxyphenyl)-2-(4-oxo-1,4-dihydro-1,5-naphthyridine-3-carboxamido)acetamido)-2-hydroxy-3,4-dihydro-2H-benzo[e][1,2]oxaborinine-8-carboxylic acid]: the MIC in assay [1] fell in the range of 128 to 256 mg/L (≈ 221 to 442 µM).
For the compound `CCN1CCN(C(=O)NC(C(=O)N[C@H]2Cc3cccc(C(=O)O)c3OB2O)c2ncc(O)cc2C)C(=O)C1=O` (stereo partly drawn) [Example 178, (3R)-3-(2-(4-ethyl-2,3-dioxopiperazine-1-carboxamido)-2-(5-hydroxy-3-methylpyridin-2-yl)acetamido)-2-hydroxy-3,4-dihydro-2H-benzo[e][1,2]oxaborinine-8-carboxylic acid], the MIC with E. coli ATCC 25922 is > 128 µg/mL; in the assay with E. coli AG100, > 128 µg/mL; in the assay with K. pneumoniae 848844, > 128 µg/mL; with E. coli 901C, 8 to 16 µg/mL; in the assay on K. pneumoniae UMM, > 128 µg/mL; in the assay with E. coli D22, 32 to 64 µg/mL. The values for the MIC in the assay on K. pneumoniae SI-117 and with E. coli AG100A were > 128 µg/mL and 32 to 64 µg/mL, respectively. Further, the pEC50 on E. coli PBP3 was 3.30 to 4.52.
In the case of `CCCN1CCN(C(=O)NC(C(=O)N[C@H]2Cc3cccc(C(=O)O)c3OB2O)c2ccc(O)cn2)C(=O)C1=O` (stereo partly drawn) [Example 134, (3R)-3-(2-(2,3-dioxo-4-propylpiperazine-1-carboxamido)-2-(5-hydroxypyridin-2-yl)acetamido)-2-hydroxy-3,4-dihydro-2H-benzo[e][1,2]oxaborinine-8-carboxylic acid], the MIC lay within 32 to 64 µg/mL in the assay on E. coli ATCC 25922; 32 to 64 µg/mL in the assay with E. coli AG100; 32 to 64 µg/mL in the assay with K. pneumoniae 848844; 2 to 4 µg/mL in the assay on E. coli 901C; 32 to 64 µg/mL with K. pneumoniae UMM; 8 to 16 µg/mL with E. coli D22. Moreover, the MIC in the assay with K. pneumoniae SI-117 lay in the range of 32 to 64 µg/mL; with E. coli AG100A, 8 to 16 µg/mL. Also, the pEC50 on E. coli PBP3 (setting [2]) was > 4.52.
`CCN1CCN(C(=O)NC(C(=O)N[C@H]2Cc3cccc(C(=O)O)c3OB2O)C(CCl)CNS(N)(=O)=O)C(=O)C1=O` (stereo partly drawn) [Example 80, (3R)-3-(4-chloro-2-(4-ethyl-2,3-dioxopiperazine-1-carboxamido)-3-((sulfamoylamino)methyl)butanamido)-2-hydroxy-3,4-dihydro-2H-benzo[e][1,2]oxaborinine-8-carboxylic acid]: the MIC in assay [1] fell in the range of 128 to 256 mg/L (≈ 212 to 425 µM).
Take `CCN1CCN(C(=O)NC(C(=O)N[C@H]2Cc3cccc(C(=O)O)c3OB2O)c2ccc(N3CCOCC3)cc2)C(=O)C1=O` (stereo partly drawn) [Example 61, (3R)-3-(2-(4-ethyl-2,3-dioxopiperazine-1-carboxamido)-2-(4-morpholinophenyl)acetamido)-2-hydroxy-3,4-dihydro-2H-benzo[e][1,2]oxaborinine-8-carboxylic acid]: the MIC in assay [1] was in the range of 128 to 256 mg/L (≈ 216 to 431 µM).
As for `CCN1CCN(C(=O)N[C@H](C(=O)N[C@H]2Cc3cccc(C(=O)O)c3OB2O)c2ccc(S(N)(=O)=O)c(OC)c2)C(=O)C1=O` [Example 168, (R)-3-((S)-2-(4-ethyl-2,3-dioxopiperazine-1-carboxamido)-2-(3-methoxy-4-sulfamoylphenyl)acetamido)-2-hydroxy-3,4-dihydro-2H-benzo[e][1,2]oxaborinine-8-carboxylic acid], the MIC in the assay with E. coli ATCC 25922 is > 128 µg/mL; in the assay with E. coli AG100, > 128 µg/mL; in the assay with K. pneumoniae 848844, > 128 µg/mL; in the assay on E. coli 901C, 0.5 to 1 µg/mL; in the assay with K. pneumoniae UMM it was > 128 µg/mL; in the assay with E. coli D22, 8 to 16 µg/mL. The values for the MIC with K. pneumoniae SI-117 and with E. coli AG100A were > 128 µg/mL and 8 to 16 µg/mL, respectively. Also, the pEC50 on E. coli PBP3 was 3.30 to 4.52.
As for `NCCN1CCN(C(=O)N[C@H](C(=O)N[C@H]2Cc3cccc(C(=O)O)c3OB2O)c2ncc(O)cc2F)C(=O)C1=O` [Example 226, (R)-3-((S)-2-(4-(2-aminoethyl)-2,3-dioxopiperazine-1-carboxamido)-2-(3-fluoro-5-hydroxypyridin-2-yl)acetamido)-2-hydroxy-3,4-dihydro-2H-benzo[e][1,2]oxaborinine-8-carboxylic acid], the MIC was > 128 µg/mL with E. coli ATCC 25922; 32 to 64 µg/mL in the assay on E. coli AG100; > 128 µg/mL in the assay on K. pneumoniae 848844; 2 to 4 µg/mL with E. coli 901C; 32 to 64 µg/mL in the assay on K. pneumoniae UMM; 8 to 16 µg/mL with E. coli D22. Also, the MIC with K. pneumoniae SI-117 was > 128 µg/mL; in the assay with E. coli AG100A, 8 to 16 µg/mL. Also, the pEC50 on E. coli PBP3 was 3.30 to 4.52.
Regarding `CCN1CCN(C(=O)NC(C(=O)N[C@H]2Cc3cc(F)c(F)c(C(=O)O)c3OB2O)c2ccc(O)c(O)c2Cl)C(=O)C1=O` (stereo partly drawn) [Example 180, (3R)-3-(2-(2-chloro-3,4-dihydroxyphenyl)-2-(4-ethyl-2,3-dioxopiperazine-1-carboxamido)acetamido)-6,7-difluoro-2-hydroxy-3,4-dihydro-2H-benzo[e][1,2]oxaborinine-8-carboxylic acid], the MIC with E. coli ATCC 25922 is 8 to 16 µg/mL; with E. coli AG100, 2 to 4 µg/mL; in the assay with K. pneumoniae 848844, 2 to 4 µg/mL; in the assay on E. coli 901C, 0.5 to 1 µg/mL; with K. pneumoniae UMM, 0.5 to 1 µg/mL; in the assay on E. coli D22 it was 2 to 4 µg/mL. In addition, the MIC in the assay with K. pneumoniae SI-117 was 2 to 4 µg/mL; in the assay with E. coli AG100A it was 0.5 to 1 µg/mL. The pEC50 on E. coli PBP3 (setting [2]) was > 4.52.
In the case of `CCOC(=O)c1cccc2c1OB(O)[C@@H](NC(=O)C(NC(=O)N1CCN(CC)C(=O)C1=O)c1ncc(O)cc1F)C2` (stereo partly drawn) [Example 195, Ethyl (3R)-3-(2-(4-ethyl-2,3-dioxopiperazine-1-carboxamido)-2-(3-fluoro-5-hydroxypyridin-2-yl)acetamido)-2-hydroxy-3,4-dihydro-2H-benzo[e][1,2]oxaborinine-8-carboxylate], the MIC with E. coli ATCC 25922 was > 128 µg/mL; with E. coli AG100, > 128 µg/mL; with K. pneumoniae 848844, > 128 µg/mL; in the assay on E. coli 901C, 32 to 64 µg/mL; with K. pneumoniae UMM it was > 128 µg/mL; with E. coli D22, > 128 µg/mL. Further, the MIC in the assay with K. pneumoniae SI-117 and in the assay on E. coli AG100A was > 128 µg/mL throughout. Moreover, the pEC50 at E. coli PBP3 (setting [2]) was < 3.30.

For the origin of these results see patent publication US12173018B2, “Penicillin-binding protein inhibitors” (priority 2018, dated 2024).
